{"source": "patent US9296745B2", "about": "“Diacylglycerol acyltransferase 2 inhibitors” (Pfizer Inc., priority 2012, dated 2016)"}
{"biological_target": "Human DGAT2 (hDGAT2) (Homo sapiens (Human), UniProt Q96PD7)", "sequence (Q96PD7 whole entry)": "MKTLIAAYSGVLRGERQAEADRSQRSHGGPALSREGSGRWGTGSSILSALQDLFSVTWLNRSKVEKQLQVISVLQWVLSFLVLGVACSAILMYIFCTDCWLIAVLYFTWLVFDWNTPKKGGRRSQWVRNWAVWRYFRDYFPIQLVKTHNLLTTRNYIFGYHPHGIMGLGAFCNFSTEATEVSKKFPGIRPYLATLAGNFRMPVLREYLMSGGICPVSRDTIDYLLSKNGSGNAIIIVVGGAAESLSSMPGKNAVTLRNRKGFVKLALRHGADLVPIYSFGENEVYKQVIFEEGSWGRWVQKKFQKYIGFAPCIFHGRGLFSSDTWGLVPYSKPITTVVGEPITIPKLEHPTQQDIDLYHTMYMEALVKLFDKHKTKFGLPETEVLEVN", "assay": "In vitro DGAT2 assay, IC50 determination with hDGAT2 membrane fraction", "type": "biochemical", "conditions": "geometric mean; background for complete inhibition of DGAT2 obtained with 50 μM (1R,2R)-2-({3′-Fluoro-4′-[(6-fluoro-1,3-benzothiazol-2-yl)amino]-1,1′-biphenyl-4-yl}carbonyl)cyclopentanecarboxylic acid; read-out: DGAT2 IC50", "experimental": "(§1) Recombinant baculovirus for the FLAG-tagged hDGAT2 was generated in SF9 insect cells using Bac-to-Bac baculovirus expression system (Invitrogen) according to the manufacturer's protocol. For the expression of hDGAT2, SF9 cells (20 L) grown in Sf900II media were infected with hDGAT2 baculovirus at a multiplicity of infection of 1 in a Wave Bioreactor System 20/50P wave bag (GE Healthcare). After 40 hours of infection, the cells were then harvested by centrifugation at 5,000×g. The cell pellets were washed by resuspending in phosphate buffered saline (PBS) and collected by centrifugation at 5,000×g. The cell paste was flash frozen in liquid N2 and stored at −80° C. until needed. All operations below were at 4° C. unless otherwise noted. The cells were resuspended in lysis buffer (50 mM Tris-HCl, pH 8.0, 250 mM sucrose) including 1 mM ethylenediaminetetraacetic acid (EDTA) and the complete protease inhibitor cocktail (Roche Diagnostics) at a ratio of 3 ml buffer per 1 g cell paste. The cells were lysed by dounce homogenizer. The cell debris was removed by centrifugation at 1,000×g for 20 min, and the supernatant was centrifuged at 100,000×g for 1 hour. The resulting pellet was rinsed three times by filling ultracentrifuge tubes to the top with ice cold PBS before decanting. The washed pellet was resuspended with gentle stirring for 1 hour in lysis buffer containing 8 mM 3-[(3-cholamidopropyl)dimethylammonio]-1-propanesulfonate (CHAPS) at a ratio of 1 mL buffer per 1 g of original cell paste and centrifuged again at 100,000×g for 1 hour. The resulting supernatant (hDGAT2 membrane fraction) was aliquotted, flash frozen in liquid N2, and stored at −80° C. until use.\n(§2) To 1 μL of compounds dissolved in 100% DMSO and spotted at the bottom of each well, 5 μL of 0.04% bovine serum albumin (BSA) (fatty acid free, Sigma Aldrich) was added and the mixture was incubated at room temperature for 20 minutes. To this mixture, 10 μL of hDGAT2 membrane fraction (0.01 mg/mL) diluted in 100 mM Hepes-NaOH, pH 7.4, 20 mM MgCl2 containing 200 nM methyl arachidonyl fluorophosphonate (Cayman Chemical; dried from ethyl acetate stock solution under argon gas and dissolved in DMSO as 5 mM stock) was added. […] The reaction mixtures were incubated at room temperature for 40 min and the reactions were stopped by addition of 5 μL of 1% H3PO4. After the addition of 45 μL MicroScint-E (Perkin-Elmer), plates were sealed with Top Seal-A covers (Perkin-Elmer) and phase partitioning of substrates and products was achieved using a HT-91100 microplate orbital shaker (Big Bear Automation, Santa Clara, Calif.). Plates were centrifuged at 2,000×g for 1 min in an Allegra 6R Centrifuge (Beckman Coulter) and then were sealed again with fresh covers before reading in a 1450 Microbeta Wallac Trilux Scintillation Counter (Perkin Elmer). DGAT2 activity was measured by quantifying the generated product [^14C]tridecanoylglycerol in the upper organic phase.\n(§3) Inhibitors were tested at eleven different concentrations to generate IC50 values for each compound. […] Results are reported as geometric mean IC50 values.", "units": {"IC50": "nM"}}
{"smiles": "Cn1nccc1C1(c2nc3ccc(N4CCC[C@@H](C(=O)N5CCCC5)C4)nc3[nH]2)CC1", "note": "[Example 104, (R)-(1-(2-(1-(1-Methyl-1H-pyrazol-5-yl)cyclopropyl)-3H-imidazo[4,5-b]pyridin-5-yl)piperidin-3-yl)(pyrrolidin-1-yl)methanone]", "IC50": 190}
{"smiles": "N#Cc1ccc(-c2nc3ccc(N4CCC[C@@H](C(=O)N5CCCC5)C4)nc3[nH]2)cc1", "note": "[Example 13, (R)-4-(5-(3-(Pyrrolidine-1-carbonyl)piperidin-1-yl)-3H-imidazo[4,5-b]pyridin-2-yl)benzonitrile]", "IC50": 63.6}
{"smiles": "COC(=O)Cc1cccc(-c2nc3ccc(N4CCC[C@@H](C(=O)N5CCCC5)C4)nc3[nH]2)c1", "note": "[Example 110, (R)-Methyl 2-(3-(5-(3-(pyrrolidine-1-carbonyl)piperidin-1-yl)-3H-imidazo[4,5-b]pyridin-2-yl)phenyl)acetate]", "IC50": 41.5}
{"smiles": "O=C([C@@H]1CCCN(c2ccc3nc(-c4cccc(C5CC5)n4)[nH]c3n2)C1)N1CCCC1", "note": "[Example 182, (R)-(1-(2-(6-Cyclopropylpyridin-2-yl)-3H-imidazo[4,5-b]pyridin-5-yl)piperidin-3-yl)(pyrrolidin-1-yl)methanone]", "IC50": 6.03}
{"smiles": "O=C([C@@H]1CCCN(c2ccc3nc(C4(c5coc(C6CC6)n5)CC4)[nH]c3n2)C1)N1CCCC1", "note": "[Example 195, (R)-(1-(2-(1-(2-cyclopropyloxazol-4-yl)cyclopropyl)-3H-imidazo[4,5-b]pyridin-5-yl)piperidin-3-yl)(pyrrolidin-1-yl)methanone]", "IC50": 142}
{"smiles": "c1cc(-c2nc3ccc(N4CCC[C@@H](c5ncc6n5CCC6)C4)nc3[nH]2)nc(C2CC2)n1", "note": "[Example 134, (R)-2-(2-Cyclopropylpyrimidin-4-yl)-5-(3-(6,7-dihydro-5H-pyrrolo[1,2-c]imidazol-3-yl)piperidin-1-yl)-3H-imidazo[4,5-b]pyridine]", "IC50": 210}
{"smiles": "c1cc(-c2nc3ccc(N4CCCC(c5nnc6n5CCC6)C4)nc3[nH]2)nc(C2CC2)c1", "note": "(racemic) [Example 169, 2-(6-Cyclopropylpyridin-2-yl)-5-(3-(6,7-dihydro-5H-pyrrolo[2,1-c][1,2,4]triazol-3-yl)piperidin-1-yl)-3H-imidazo[4,5-b]pyridine]", "IC50": 292}
{"smiles": "c1cc(-c2nc3ccc(N4CCCC(c5ncc6n5CCC6)C4)nc3[nH]2)nc(C2CC2)n1", "note": "(centres unmarked) [Example 133, 2-(2-Cyclopropylpyrimidin-4-yl)-5-(3-(6,7-dihydro-5H-pyrrolo[1,2-c]imidazol-3-yl)piperidin-1-yl)-3H-imidazo[4,5-b]pyridine]", "IC50": 252}
{"smiles": "c1ccc(C2CCCN(c3ccc4nc(-c5ccnc(C6CC6)n5)[nH]c4n3)C2)nc1", "note": "(centres unmarked) [Example 59, 2-(2-Cyclopropylpyrimidin-4-yl)-5-(3-(pyridin-2-yl)piperidin-1-yl)-3H-imidazo[4,5-b]pyridine]", "IC50": 858}
{"smiles": "O=C([C@@H]1CCCN(c2ccc3nc(C4(n5nccn5)CC4)[nH]c3n2)C1)N1CCCC1", "note": "[Example 214, (R)-(1-(2-(1-(2H-1,2,3-Triazol-2-yl)cyclopropyl)-3H-imidazo[4,5-b]pyridin-5-yl)piperidin-3-yl)(pyrrolidin-1-yl)methanone]", "IC50": 396}
{"smiles": "O=C([C@@H]1CCCN(c2ccc3nc(C4(n5cc(Cl)cn5)CC4)[nH]c3n2)C1)N1CCC1", "note": "[Example 205, (R)-Azetidin-1-yl(1-(2-(1-(4-chloro-1H-pyrazol-1-yl)cyclopropyl)-3H-imidazo[4,5-b]pyridin-5-yl)piperidin-3-yl)methanone]", "IC50": 188}
{"smiles": "O=C([C@@H]1CCCN(c2ccc3nc(-c4ccnc(C5CC5)n4)[nH]c3n2)C1)N1C[C@H]2C[C@@H]1CO2", "note": "[Example 174, (1R,4R)-2-Oxa-5-azabicyclo[2.2.1]heptan-5-yl((R)-1-(2-(2-cyclopropylpyrimidin-4-yl)-3H-imidazo[4,5-b]pyridin-5-yl)piperidin-3-yl)methanone]", "IC50": 1170}
{"smiles": "O=C([C@@H]1CCCN(c2ccc3nc(-c4coc(C5CC5)n4)[nH]c3n2)C1)N1CCCC1", "note": "[Example 118, (R)-(1-(2-(2-Cyclopropyloxazol-4-yl)-3H-imidazo[4,5-b]pyridin-5-yl)piperidin-3-yl)(pyrrolidin-1-yl)methanone]", "IC50": 301}
{"smiles": "O=C([C@@H]1CCCN(c2ccc3nc(-c4cccc(-n5cccn5)c4)[nH]c3n2)C1)N1CCCC1", "note": "[Example 3, (R)-(1-(2-(3-(1H-Pyrazol-1-yl)phenyl)-3H-imidazo[4,5-b]pyridin-5-yl)piperidin-3-yl)(pyrrolidin-1-yl)methanone]", "IC50": 4.82}
{"smiles": "CC(C)(O)c1cccc(-c2nc3ccc(N4CCC[C@@H](C(=O)N5CCCC5)C4)nc3[nH]2)n1", "note": "[Example 115, (R)-(1-(2-(6-(2-Hydroxypropan-2-yl)pyridin-2-yl)-3H-imidazo[4,5-b]pyridin-5-yl)piperidin-3-yl)(pyrrolidin-1-yl)methanone]", "IC50": 67.9}
{"smiles": "O=C([C@@H]1CCCN(c2ccc3nc(-c4cnn(-c5ccccc5)c4)[nH]c3n2)C1)N1CCCC1", "note": "[Example 9, (R)-(1-(2-(1-Phenyl-1H-pyrazol-4-yl)-3H-imidazo[4,5-b]pyridin-5-yl)piperidin-3-yl)(pyrrolidin-1-yl)methanone]", "IC50": 22.1}
{"smiles": "Cc1cncc(-c2nc3ccc(N4CCC[C@@H](C(=O)N5CCCC5)C4)nc3[nH]2)c1", "note": "[Example 33, (R)-(1-(2-(5-Methylpyridin-3-yl)-3H-imidazo[4,5-b]pyridin-5-yl)piperidin-3-yl)(pyrrolidin-1-yl)methanone]", "IC50": 97}
{"smiles": "O=C([C@@H]1CCCN(c2ccc3nc(C4CC4)[nH]c3n2)C1)N1CCCC1", "note": "[Example 29, (R)-(1-(2-Cyclopropyl-3H-imidazo[4,5-b]pyridin-5-yl)piperidin-3-yl)(pyrrolidin-1-yl)methanone]", "IC50": 4370}
{"smiles": "Cc1cccc(-c2nc3ccc(N4CCC[C@@H](C(=O)N5CCCC5)C4)nc3[nH]2)n1", "note": "[Example 44, (R)-(1-(2-(6-Methylpyridin-2-yl)-3H-imidazo[4,5-b]pyridin-5-yl)piperidin-3-yl)(pyrrolidin-1-yl)methanone]", "IC50": 36.5}
{"smiles": "O=C([C@@H]1CCCN(c2ccc3nc(-c4cccc(N5CCCC5)n4)[nH]c3n2)C1)N1CCCC1", "note": "[Example 38, (R)-Pyrrolidin-1-yl(1-(2-(6-(pyrrolidin-1-yl)pyridin-2-yl)-3H-imidazo[4,5-b]pyridin-5-yl)piperidin-3-yl)methanone]", "IC50": 7.81}
{"smiles": "O=C([C@@H]1CCCN(c2ccc3nc(-c4ccnc(C5CC5)n4)[nH]c3n2)C1)N1CC[C@@H](F)C1", "note": "[Example 69, ((R)-1-(2-(2-Cyclopropylpyrimidin-4-yl)-3H-imidazo[4,5-b]pyridin-5-yl)piperidin-3-yl)((R)-3-fluoropyrrolidin-1-yl)methanone]", "IC50": 35.4}
{"smiles": "O=C([C@@H]1CCCN(c2ncc3nc(-c4cccc(C(F)(F)F)n4)[nH]c3n2)C1)N1CCCC1", "note": "[Example 187, (R)-Pyrrolidin-1-yl(1-(8-(6-(trifluoromethyl)pyridin-2-yl)-9H-purin-2-yl)piperidin-3-yl)methanone]", "IC50": 10.5}
{"smiles": "Cc1cccc(=O)n1Cc1nc2ccc(N3CCC[C@@H](C(=O)N4CCCC4)C3)nc2[nH]1", "note": "[Example 57, (R)-6-Methyl-1-((5-(3-(pyrrolidine-1-carbonyl)piperidin-1-yl)-3H-imidazo[4,5-b]pyridin-2-yl)methyl)pyridin-2(1H)-one]", "IC50": 702}
{"smiles": "O=C([C@@H]1CCCN(c2ccc3nc(COc4ccc(Cl)cc4)[nH]c3n2)C1)N1CCCC1", "note": "[Example 48]", "IC50": 10.7}
{"smiles": "CCOC(=O)c1cc(CC)nc(-c2nc3ccc(N4CCC[C@@H](C(=O)N5CCCC5)C4)nc3[nH]2)c1", "note": "[Example 105, (R)-Ethyl 2-ethyl-6-(5-(3-(pyrrolidine-1-carbonyl)piperidin-1-yl)-3H-imidazo[4,5-b]pyridin-2-yl)isonicotinate]", "IC50": 28.9}
{"biological_target": "Human DGAT2 (hDGAT2) (Homo sapiens (Human), UniProt Q96PD7)", "assay": "In vitro DGAT2 assay, IC50 determination with hDGAT2 membrane fraction", "type": "biochemical", "conditions": "read-out: DGAT2 IC50", "experimental": "as §1, §2, §3", "units": {"IC50": "nM"}}
{"smiles": "O=C([C@@H]1CCCN(c2ccc3nc(C4(c5ccc[n+]([O-])c5)CC4)[nH]c3n2)C1)N1CCCC1", "note": "[Example 160, (R)-3-(1-(5-(3-(Pyrrolidine-1-carbonyl)piperidin-1-yl)-3H-imidazo[4,5-b]pyridin-2-yl)cyclopropyl)pyridine 1-oxide]", "IC50": 789}
